“Also recorded” adds a separate entry of the source.
Tests used:
[1] = system: mouse IL-4/IL-13-induced M2 polarization; assay: in vitro titration assay of IL-4/IL-13-induced M2 polarization; assay type: cell-based; conditions: at 1 μM
From the text: Antibodies and flow cytometry: All antibodies used for flow cytometry were purchased from Biolegend, unless indicated. For surface staining, murine cells were stained with the following antibodies: APC-CD45.2 (109814, 1:200), PE/Cy7-CD4 (100528, 1:300), Percp/Cy5.5-CD11b (101228, 1:200), BV421-F4/80 (123137, 1:200), APC/Cy7-CD11C (117324, 1:200), PE-IL-411.a (144803 1:100), AF488-CD206 (141710, 1:100), AF700-MHCII (107622, 1:300), PB-Ly6C (128014, 1:200), PE/Cy7-Ly-6G (127617, 1:300), PE-FcεRIα (134307, 1:200), AF488-ckit (105815, 1:200), APC-eFluor780-CD45.1 (47-0453-82, eBioscience, 1:200) and PE-Siglec-F (562068, BD Biosciences, 1:200). Human cells were stained with PE/Cy7-CD14 (301814,1:100), AF488-CD206 (321114, 1:50) and APC-CD68 (333810, 1:100). […]
Cell preparation and in vitro cultures: Pancreatic leukocytes were isolated using collagenase digestion method described previously for flow cytometry analysis (Xue, J., et al. Aryl hydrocarbon receptor regulates pancreatic IL-22 production and protects mice from acute pancreatitis. Gastroenterology 143, 1670-1680 (2012)). […] Isolated PSCs were ready for use after the second passage. […] On day 6, human macrophages are ready for use (Vijayan, D. Isolation and differentiation of monocytes-macrophages from human blood. Methods Mol. Biol. 844, 183-187 (2012)). […]

[2] = system: caerulein-induced CP mice; assay: caerulein-induced chronic pancreatitis (CP) mouse model; assay type: in vivo; conditions: for pancreas fibrosis (relative pancreas weight, H&E, Trichrome, α-SMA, Collagen1A1) / alternative activation of pancreatic macrophages (CD206 expression, flow cytometry): established CP; for pancreas fibrosis (relative pancreas weight, H&E, Trichrome, α-SMA, Collagen1A1): FIG. 6A-6E; for alternative activation of pancreatic macrophages (CD206 expression, flow cytometry): FIG. 6F
From the text: As indicated herein, agents that inhibit IL-4/IL-13 receptor function such as CRSM53567 will have benefit in several fibrosis and cancer diseases. In this design a commonly used model to cause chronic pancreatitis in rodents was created. In this model, the animal is given the cholecystokinin analogue, Caerulein, as a set of 6 intraperitoneal injections over a day repeated 3 times a week for 4 weeks. […] CD206 is a marker of the type II macrophage while MHCII is highly expressed on type I macrophage.
Pancreatitis model and treatment: AP was induced with caerulein injection in mice as previously described (Xue, J., et al. Aryl hydrocarbon receptor regulates pancreatic IL-22 production and protects mice from acute pancreatitis. Gastroenterology 143, 1670-1680 (2012); Xue, J. & Habtezion, A. Carbon monoxide-based therapy ameliorates acute pancreatitis via TLR4 inhibition. J. Clin. Invest. 124, 437-447 (2014)). CP was induced by repetitive caerulein injections (Lerch, M. M. & Gorelick, F. S. Models of acute and chronic pancreatitis. Gastroenterology 144, 1180-1193 (2013); Treiber, M. et al. Myeloid, but not pancreatic, RelA/p65 is required for fibrosis in a mouse model of chronic pancreatitis. Gastroenterology 141, e1471-e1477 (2011)). In brief, mice were given six hourly intraperitoneal (i.p.) injections of 50-μg kg^−1 body weight caerulein (Sigma-Aldrich) 3 days per week, for a total of 4 weeks. Mice were then killed and analyzed 3 days after the last caerulein injection. For blocking peptide study all mice were given caerulein injection 3 days per week for a total of 4 weeks as above, and 2 weeks following start of the caerulein injection mice were either given vehicle control (PBS) or IL-4/IL-13-blocking peptide ([…], 100 μl daily for 5 days per week×2 weeks) until being killed 4 weeks and 3 days later as above.
Histology and immunofluorescence: Mice were killed by CO2 inhalation, and then their pancreata were rapidly removed. Pancreas pieces were immediately fixed in 10% formalin or frozen in Tissue-Tek OCT compound. Fixed tissues were sectioned and used for haemotoxylin and eosin and Trichrome staining (performed in the Histo-Tec Laboratory). Frozen tissues were also sectioned for immunofluorescence staining with indicated antibodies and analyzed with confocal microscopy.
Antibodies and flow cytometry: All antibodies used for flow cytometry were purchased from Biolegend, unless indicated. For surface staining, murine cells were stained with the following antibodies: APC-CD45.2 (109814, 1:200), PE/Cy7-CD4 (100528, 1:300), Percp/Cy5.5-CD11b (101228, 1:200), BV421-F4/80 (123137, 1:200), APC/Cy7-CD11C (117324, 1:200), PE-IL-411.a (144803 1:100), AF488-CD206 (141710, 1:100), AF700-MHCII (107622, 1:300), PB-Ly6C (128014, 1:200), PE/Cy7-Ly-6G (127617, 1:300), PE-FcεRIα (134307, 1:200), AF488-ckit (105815, 1:200), APC-eFluor780-CD45.1 (47-0453-82, eBioscience, 1:200) and PE-Siglec-F (562068, BD Biosciences, 1:200). Human cells were stained with PE/Cy7-CD14 (301814,1:100), AF488-CD206 (321114, 1:50) and APC-CD68 (333810, 1:100). For intracellular cytokine staining, cells were activated with phorbol myristate acetate (50 ng ml^−1) and ionomycin (1 μg ml^−1), in the presence of brefeldin A (10 μg ml^−1, eBioscience) for 4h at 37° C. before staining. The cells were then fixed and permeabilized using the eBioscience kit following the manufacturer's guidelines. APC-IL10 (554468, 1:100) and isotype control (556924, 1:100) from BD Biosciences were used for intracellular staining. For intracellular TNFα staining, cells were incubated with or without lipopolysaccharide (100 ngml-1, InvivoGen) in the presence of brefeldin A before surface-staining. PE-TNFα (554419, 1:200) and isotype control (554685, 1:200) from BD Biosciences were used.
Quantitative RT-PCR: Th pancreas or cells were lysed with Trizol reagent (Invitrogen) for total RNA preparation according to the manufacturer's instructions. […]

[3] = system: human macrophages; assay: M2 polarization of human macrophages by hPSC conditioned medium; assay type: cell-based; conditions: hPSC_CM pretreated with 1 μM, 24 h; FIG. 6G
Method: IL-4/IL-13-blocking peptide (IL4/13BP i.p., 50 μg per mouse, 5 days per week) was administrated to mice 2 weeks after starting CP induction and mice were killed as previous after 4 weeks of caerulein injections. […] (unpaired two-tailed Student's t-test). […] Scale bar, 200 μm. […] Scale bar: 50 μm. FIG. 6D and FIG. 6E show RT-PCR analysis of α-SMA and Col1α1 (Collagen1A1) gene expression in the pancreas of indicated mice. Means±s.e.m. (unpaired two-tailed Student's t-test). […] Means±s.e.m. (unpaired two-tailed Student's t-test). In FIG. 6G human macrophages as above were cultured with control medium (Con), conditioned medium from hPSCs (hPSC_CM) or hPSC_CM pretreated with 1 μM IL4/13BP (hPSC_CM+BP) for 24h. Expression of CD206 (% CD206^+ macrophages) was analysed using flow cytometry.
Antibodies and flow cytometry: All antibodies used for flow cytometry were purchased from Biolegend, unless indicated. […]
Cell preparation and in vitro cultures: Pancreatic leukocytes were isolated using collagenase digestion method described previously for flow cytometry analysis (Xue, J., et al. Aryl hydrocarbon receptor regulates pancreatic IL-22 production and protects mice from acute pancreatitis. Gastroenterology 143, 1670-1680 (2012)). […] Isolated PSCs were ready for use after the second passage. […]

[4] = system: E0771 tumors; assay: syngeneic E0771 tumor model with radiation therapy; assay type: in vivo, C57BL/6 mice; conditions: for response to radiation therapy (tumor volume): 50 μg in 100 μL PBS daily injection combined with RT 16 Gy, versus RT alone, FIG. 8A
Method: Syngeneic E0771 tumors were implanted in the lower mammary gland of C57BL/6 mice and allowed to grow to approximately […]. Mice were then enrolled on study (n=5/group) and treated with either PBS (Control), IL4/13 blocking peptide CSRM53567 (50 μg in 100 μL PBS, daily injection), radiation therapy (RT) alone (16 Gy) or combination of CSRM53567 peptide and RT. Mice were measured at the indicated time points with digital calipers and the resulting volume was calculated. ** p<0.01. […] There were fewer CD4+ T cells and more CD8+ T cells as a percentage of the CD45+ leukocytes in the tumors that received radiation therapy and the IL4/13 blocking peptide compared to radiation alone. […] The cytokines and CD45+ cells were all harvested at end point which is about two weeks post-RT.

[5] = chronic pancreatitis mouse model, preliminary results, FIG. 1
[6] = i.p. 50 μg per mouse, 5 days per week, started 2 weeks after starting CP induction
[7] = i.p. 50 μg per mouse, 5 days per week, started 2 weeks after starting CP induction, listed as IL-4/13-blocking peptide
[8] = RT plus peptide compared to radiation alone, about two weeks post-RT

TYR-CYS-ASP-ASP-PHE-VAL-GLY-SER-PHE-ASP-CYS-TYR (YCDDFVGSFDCY) [CSRM53567]
mouse IL-4/IL-13-induced M2 polarization and CD206 expression [1]: significantly decreased
macrophages in the tissue (FACS) ([2]; chronic pancreatitis mouse model, caerulein 3 times a week for 4 weeks, preliminary results, FIG. 1B): decreases; also recorded: reduces
fibrosis [2, 5]: decreased fibrosis; also recorded: reduces
tissue volume / pancreas shrinkage [2, 5]: increase; also recorded: preventing pancreas shrinkage
pancreas fibrosis (relative pancreas weight, H&E, Trichrome, α-SMA, Collagen1A1) [2, 6]: limited pancreas fibrosis
pancreas fibrosis (relative pancreas weight, H&E, Trichrome, α-SMA, Collagen1A1) [2, 7]: ameliorated
alternative activation of pancreatic macrophages (CD206 expression, flow cytometry) [2, 6]: blockade of alternative activation
alternative activation of pancreatic macrophages (CD206 expression, flow cytometry) [2, 7]: decreased
established CP ([2]; i.p. 50 μg per mouse, 5 days per week, started 2 weeks after starting CP induction, FIG. 6): ameliorates established CP
hPSC-mediated M2 polarization of human macrophages (% CD206+ macrophages) [3]: capable of inhibiting
response to radiation therapy (tumor volume) [4]: enhances response to radiation therapy
response to radiation therapy (tumor volume) ([4]; listed as IL-4/IL-13 blocking peptide): enhances the response to radiation therapy
number of CD8+ T cells post radiation therapy ([4]; FIG. 8B): enhances the number of CD8+ T cells
CD4+ T cells as a percentage of the CD45+ leukocytes in the tumors [4, 8]: fewer
CD8+ T cells as a percentage of the CD45+ leukocytes in the tumors [4, 8]: more
absolute number of CD45+ leukocytes [4, 8]: remained roughly the same

From patent US11547738B2, “Compositions and methods for treating fibrosis” (Cedars-Sinai Medical Center, priority 2014, dated 2023)
